Earlier results in patent publication US20230309840A1, “TARGETING ABNORMAL CELL POPULATIONS FOR APOPTOSIS” (priority 2020, published 2023).

Assays:
[1] = system: cancer cell lines
[2] = system: senescent human fibroblasts; conditions: at 100 μM
[3] = system: control cells
[4] = system: cancer cells; conditions: for anti-cancer activity: compared with curcumin
[5] = system: senescent cells
[6] = in vivo
[7] = system: Drosophila melanogaster; conditions: in vivo
[8] = system: Caenorhabditis elegans; conditions: in vivo
[9] = system: airway inflammation and oxidative stress
[10] = system: prostate cancer (Pica) cell
[11] = system: tumor; conditions: tumor-bearing mouse model, vs free cisplatin

C[C@H]1[C@H](OC(=O)CCC(=O)O)O[C@@H]2O[C@@]3(C)CC[C@H]4[C@H](C)CC[C@@H]1[C@@]24OO3 [Artesunate]
effect on cancer cell lines [1]: cytotoxic effects

CC[C@H]1OC(=O)[C@H](C)[C@@H](O[C@H]2C[C@@](C)(OC)[C@@H](O)[C@H](C)O2)[C@H](C)[C@@H](O[C@@H]2O[C@H](C)C[C@H](N(C)C)[C@H]2O)[C@](C)(O)C[C@@H](C)CN(C)[C@H](C)[C@@H](O)[C@]1(C)O [Azithromycin]
elimination of senescent cells [2]: selectively eliminated large numbers of senescent cells
effect on control cells [3]: without affecting control cells

COc1ccc(/C=C/C(=O)CC(=O)/C=C/c2ccc(OC)c(OC)c2)cc1OC [DIMC, dimethoxycurcumin]
anti-cancer activity [4]: better anti-cancer activities than curcumin

O=C1/C(=C/c2ccccc2F)CNC/C1=C\c1ccccc1F [EF24]
anti-cancer activity [4]: more efficacious against various cancer cells
potency in inducing cancer cell death ([4]; relative to curcumin): 10 fold
killing of senescent cells in combination ([5]; combined with Navitoclax): synergistically kill senescent cells
cell viability of senescent cells ([5]; variety of senescent cells): selectively decrease the cell viability

CC1(C)C=C(CN2C/C(=C\c3ccc(F)cc3)C(=O)/C(=C/c3ccc(F)cc3)C2)C(C)(C)N1O [HO-3867]
anti-cancer activity [4]: better anti-cancer activities than curcumin

O=c1c(O)c(-c2ccc(O)c(O)c2)oc2cc(O)cc(O)c12 [Quercetin]
solubility in water: poorly soluble in water
bioavailability [6]: very low

CC[C@H]1OC(=O)[C@H](C)[C@@H](O[C@H]2C[C@@](C)(OC)[C@@H](O)[C@H](C)O2)[C@H](C)[C@@H](O[C@@H]2O[C@H](C)C[C@H](N(C)C)[C@H]2O)[C@](C)(O)C[C@@H](C)/C(=N\OCOCCOC)[C@H](C)[C@@H](O)[C@]1(C)O [Roxithromycin]
elimination of senescent cells [2]: selectively eliminated large numbers of senescent cells

COc1cc(/C=C/C(=O)CC(=O)/C=C/c2ccc(O)c(OC)c2)ccc1O [curcumin, Curcumin]
solubility in water: low aqueous solubility
bioavailability [6]: poor oral bioavailability
lifespan and health span [7]: prolong lifespan and extend health span
lifespan and health span [8]: prolong lifespan and extend health span

[HH] [hydrogen gas, hydrogen]
number of total cells, eosinophils, and lymphocytes ([9]; bronchial alveolar lavage fluid, inhalation): significantly reduced
IL-4 serum level ([9]; following inhalation): significantly decreased
activity of superoxide dismutase ([9]; inhalation): markedly upregulated
increased level of malondialdehyde and myeloperoxidase ([9]; inhalation): significantly attenuated
level of IL-4, IL-13, TNF-α and chemokine (C-X-C motif) ligand 15 ([9]; inhalation): increased the level

CC(C)=CCC/C(C)=C/CC/C(C)=C/CC[C@]1(C)CCc2cc(O)c(C)c(C)c2O1 [γ-Tocotrienols]
inhibition of cell proliferation and invasion [10]: potent and specific inhibitor

Tf-cisplatin complex: transferrin (Tf) conjugated cisplatin
toxicity in other tissues [11]: less toxicity in other tissues
tumor growth inhibition [11]: inhibited tumor growth in vivo more effectively than free cisplatin
